Data as given in patent US20250002473A1, “QUINOXALINE DERIVED SULFONAMIDES WITH EGFR DEGRADATION ACTIVITIES AND THEIR USES THEREOF” (Accutar Biotechnology Inc., priority 2023, published 2025).
Read-outs that look alike come from different tables or passages of the source.

Assays:
Type in all cases: cell-based
[1] = target: T1, BaF3_ASV (EGFR_A776inASV) (Homo sapiens, UniProt P00533, DUP767-769); experiment: EGFR degradation assay (western blot), BaF3_ASV cells; conditions: BaF3_ASV cells, compounds 24 h, western blot; read-out: BaF3_ASV DC50
T1 construct: expressed in transfected cells; host or cells: Ba/F3 (engineered)
Method: (§1) A431 (EGFR_WT), NCl-H2073 (EGFR_WT), NCl-H292 (EGFR_WT), BaF3_YVAM (Her2_A775insYVAM), BaF3_SVD (EGFR_D770insSVD), BaF3_ASV (EGFR_A776inASV), or BaF3_DTC (EGFR_Exon19del/T790M/C797S) cells were seeded in a 24-well plate at a density of 4×10^5 cells per well for EGFR WT cells and 8× cells per well for EGFR or Her2 mutant cells, and the plates were incubated overnight. The cells were treated with the desired compounds for 24 h. The culture medium was removed, and 100 μL of RIPA buffer (Beyotime, P0013B) containing 1% Protease Inhibitor Cocktail (Bimake, B14001), 1% Phosphatase Inhibitor Cocktail 2 (Sigma, P5726), and 1% Phosphatase Inhibitor Cocktail 3 (Sigma, P0044) were added to lyse the cells. Then, the cell lysates were transferred to 1.5 mL microcentrifuge tubes and centrifuged at 12,000 rpm and 4° C. for 30 min. The supernatants were transferred into new tubes, and the protein concentration was determined using the BCA protein quantification method. All samples were diluted to the same concentration using RIPA buffer, loading buffer was added, samples were denatured, and 15 μg of protein per lane was loaded onto a SurePAGE 4-20% Bis-Tris gel. Samples were separated via electrophoresis in MOPS running buffer at 180 V for 100 min. Then, proteins were transferred onto PVDF membranes using the MiniBlot™ Electrophoretic Transfer Cell Device (Beyotime, E6050). The membrane was blocked using block buffer (LI-COR 927-60001) to prevent non-specific binding. The membrane was incubated with primary antibodies (1:500 dilution, EGFR-CST4405, 1:2000 dilution, Tubulin-ABclonal #AC021) at 4° C. overnight. The membrane was washed three times with 1× TBST buffer for 15 min each. The membrane was incubated with secondary antibodies IRDye 680RD Goat anti-Rabbit IgG Secondary Antibody (1:2000 dilution, LI-COR 926-68071) and IRDye 800CW Goat anti-Mouse IgG Secondary Antibody (1:2000 dilution, LI-COR 926-32210). Finally, the membrane was washed again with 1× TBST buffer 3 times. Fluorescence was detected using the Odyssey CLx Imaging System, and the data were analyzed with Empiria Studio Software and GraphPad Prism 9. Table 4 and Table 5 list the degradation results, where the degradation potency is represented by DC50, the concentration of compounds to cause the degradation of 50% of the corresponding proteins. FIGS. 45-49 show western blots illustrating the EGFR degradative activity of exemplary Compound of the present disclosure and a comparator Compound A in different cell lines 24 h after administration. The Compound referred herein as Compound A is disclosed in WO 2022/171123 A1 (see, compound 133, page 46; published Aug. 18, 2022). WO 2022/171123 A1 discloses phosphine oxide derived molecules with EGFR degradation activity.

BaF3_DTC = experiment: Cell growth inhibition assay (CellTiter-Glo), BaF3_DTC; conditions: 72 h; Table 6; BaF3_DTC cells, three days, CellTiter-Glo; read-out: BaF3_DTC GI50
Method: (§2) Cells were seeded in a 96-well plate (Corning 3610) with 90 μL of culture medium per well, and plates were incubated at 37° C. overnight. A 1,000× DMSO stock solution of the desired compound was prepared the following day. A compound dilution plate was prepared by diluting the stock solution 1:100 in the corresponding cell culture medium, 10 μL of the diluted compound solution was added to each 96-well plate well containing the seeded cells. […] The content of the wells was mixed by shaking continuously for 10 min, and luminescence was measured using Envision (PerkinElmer). The data were analyzed with GraphPad Prism 9 (see FIG. 50).
(§3) Table 6, Table 7, and Table 8 list the cell growth inhibition results, where Gls0 represents the compound concentration to cause 50% cell growth inhibition in comparison with DMSO.

A431 (EGFR_WT) = target: T2, A431 (EGFR_WT) (Homo sapiens, UniProt P00533); experiment: EGFR degradation assay (western blot), A431 cells; conditions: compounds 24 h, western blot, read-out: A431 DC50
T2 construct: endogenous in cells; host or cells: A431, NCI-H2073, NCI-H292
Method: as §1

BaF3_ASV = experiment: Cell growth inhibition assay (CellTiter-Glo), BaF3_ASV; conditions: 72 h
Method: as §2, §3

[2] = tested on: BaF3_DTC (EGFR_Exon19del/T790M/C797S); experiment: EGFR degradation assay (western blot), BaF3_DTC cells; conditions: BaF3_DTC cells (EGFR_Exon19del/T790M/C797S), compounds 24 h, western blot; read-out: BaF3_DTC DC50
Method: as §1

A431 = experiment: Cell growth inhibition assay (CellTiter-Glo), A431; conditions: Homo sapiens, A-431, 72 h, Table 6; A431 cells, three days, CellTiter-Glo; read-out: A431 GI50
Method: as §2, §3

[3] = Table 6, BaF3_ASV cells, three days, CellTiter-Glo, read-out: BaF3_ASV GI50

T1 sequence (P00533 with tags, fused parts or gaps DUP767-769): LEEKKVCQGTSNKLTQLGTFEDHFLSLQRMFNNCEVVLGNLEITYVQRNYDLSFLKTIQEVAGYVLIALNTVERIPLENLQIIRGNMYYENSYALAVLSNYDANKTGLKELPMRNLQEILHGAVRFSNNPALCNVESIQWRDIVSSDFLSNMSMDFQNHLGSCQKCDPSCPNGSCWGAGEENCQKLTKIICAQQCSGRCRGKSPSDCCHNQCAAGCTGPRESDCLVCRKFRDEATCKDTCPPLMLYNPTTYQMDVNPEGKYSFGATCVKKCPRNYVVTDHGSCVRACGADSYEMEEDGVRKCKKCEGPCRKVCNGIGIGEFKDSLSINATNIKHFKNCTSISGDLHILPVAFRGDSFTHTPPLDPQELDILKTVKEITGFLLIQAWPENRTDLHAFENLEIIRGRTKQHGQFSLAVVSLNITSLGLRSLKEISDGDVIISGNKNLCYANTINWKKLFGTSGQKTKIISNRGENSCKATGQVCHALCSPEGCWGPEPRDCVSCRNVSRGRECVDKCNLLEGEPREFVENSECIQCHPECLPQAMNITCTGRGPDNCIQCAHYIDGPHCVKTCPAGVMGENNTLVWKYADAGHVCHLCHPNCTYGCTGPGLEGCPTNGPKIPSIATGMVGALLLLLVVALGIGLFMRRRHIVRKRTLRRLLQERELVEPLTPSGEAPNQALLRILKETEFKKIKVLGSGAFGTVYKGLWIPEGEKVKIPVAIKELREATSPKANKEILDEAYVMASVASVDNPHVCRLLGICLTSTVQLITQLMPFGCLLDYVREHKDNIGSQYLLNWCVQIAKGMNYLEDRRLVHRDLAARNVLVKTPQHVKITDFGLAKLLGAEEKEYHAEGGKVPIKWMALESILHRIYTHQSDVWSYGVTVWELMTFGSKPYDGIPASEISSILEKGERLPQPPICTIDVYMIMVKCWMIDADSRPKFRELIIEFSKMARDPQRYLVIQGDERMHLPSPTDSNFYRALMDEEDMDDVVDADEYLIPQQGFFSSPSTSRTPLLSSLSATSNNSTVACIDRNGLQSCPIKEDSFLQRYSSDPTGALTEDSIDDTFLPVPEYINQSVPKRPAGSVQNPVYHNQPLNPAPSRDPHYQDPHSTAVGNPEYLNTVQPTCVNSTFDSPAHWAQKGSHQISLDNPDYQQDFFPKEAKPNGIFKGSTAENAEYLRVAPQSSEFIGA
T2 sequence (P00533 25-1210): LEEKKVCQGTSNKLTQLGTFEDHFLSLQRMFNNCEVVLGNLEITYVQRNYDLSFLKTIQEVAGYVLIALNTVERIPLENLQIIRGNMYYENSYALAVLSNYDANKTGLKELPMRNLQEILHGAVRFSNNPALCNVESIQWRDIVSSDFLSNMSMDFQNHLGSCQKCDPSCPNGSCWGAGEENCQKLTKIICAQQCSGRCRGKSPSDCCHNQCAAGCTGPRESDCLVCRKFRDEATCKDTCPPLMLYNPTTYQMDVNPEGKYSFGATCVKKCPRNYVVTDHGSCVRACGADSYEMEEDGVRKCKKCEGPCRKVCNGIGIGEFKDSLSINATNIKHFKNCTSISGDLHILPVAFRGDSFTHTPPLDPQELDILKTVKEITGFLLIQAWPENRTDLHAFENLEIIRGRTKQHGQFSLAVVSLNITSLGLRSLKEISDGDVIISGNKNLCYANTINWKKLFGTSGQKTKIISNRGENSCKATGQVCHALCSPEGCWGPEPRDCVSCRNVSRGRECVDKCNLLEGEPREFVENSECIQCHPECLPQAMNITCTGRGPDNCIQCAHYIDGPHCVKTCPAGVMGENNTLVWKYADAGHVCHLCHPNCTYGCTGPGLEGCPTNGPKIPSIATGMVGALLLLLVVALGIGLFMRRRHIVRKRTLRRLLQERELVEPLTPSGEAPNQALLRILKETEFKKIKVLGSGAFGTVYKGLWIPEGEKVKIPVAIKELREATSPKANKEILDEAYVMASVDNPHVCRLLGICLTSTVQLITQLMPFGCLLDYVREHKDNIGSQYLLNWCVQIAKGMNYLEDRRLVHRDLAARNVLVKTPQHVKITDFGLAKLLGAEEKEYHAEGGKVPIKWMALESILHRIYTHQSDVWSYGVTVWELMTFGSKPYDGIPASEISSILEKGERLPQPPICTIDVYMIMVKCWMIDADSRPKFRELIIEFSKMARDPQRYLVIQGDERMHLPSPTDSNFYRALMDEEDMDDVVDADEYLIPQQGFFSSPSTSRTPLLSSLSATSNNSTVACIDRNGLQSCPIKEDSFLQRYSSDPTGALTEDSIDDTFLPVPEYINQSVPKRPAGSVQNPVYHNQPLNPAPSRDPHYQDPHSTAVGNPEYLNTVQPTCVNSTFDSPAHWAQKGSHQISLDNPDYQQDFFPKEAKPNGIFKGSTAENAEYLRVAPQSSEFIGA

SMILES | DC50 [1] | GI50 (BaF3_DTC) | DC50 (A431 (EGFR_WT)) | GI50 (BaF3_ASV; read-out: BaF3_ASV GI50 (nM)) | DC50 [2] | GI50 (A431) | GI50 (BaF3_ASV; [3])
CCc1cc(Nc2ncc(Br)c(Nc3ccc4nccnc4c3NS(C)(=O)=O)n2)c(OC)cc1N1CCC(N2CCN(CCc3cccc4c3oc(=O)n4C3CCC(=O)NC3=O)CC2)CC1 (stereo not drawn) [Compound 77, N-(6-((5-bromo-2-((4-(4-(4-(2-(3-(2,6-dioxopiperidin-3-yl)-2-oxo-2,3-dihydrobenzo[d]oxazol-7-yl)ethyl)piperazin-1-yl)piperidin-1-yl)-5-ethyl-2-methoxyphenyl)amino)pyrimidin-4-yl)amino)quinoxalin-5-yl)methanesulfonamide] | > 1000 nM | 5.39 nM | > 1000 nM | 131 nM | 2.7 nM | > 3000 nM | –
CCc1cc(Nc2ncc(Br)c(Nc3ccc4nccnc4c3NS(C)(=O)=O)n2)c(OC)cc1N1CCC(CN2CCC3(CC2)CCN(c2ccc4c(c2)CN(C2CCC(=O)NC2=O)C4=O)CC3)CC1 (stereo not drawn) [Compound 54, N-(6-((5-bromo-2-((4-(4-((9-(2-(2,6-dioxopiperidin-3-yl)-1-oxoisoindolin-5-yl)-3,9-diazaspiro[5.5]undecan-3-yl)methyl)piperidin-1-yl)-5-ethyl-2-methoxyphenyl)amino)pyrimidin-4-yl)amino)quinoxalin-5-yl)methanesulfonamide] | 33.5 nM | 4.77 nM | – | – | 13.3 nM | > 1000 nM | 31 nM
CCc1cc(Nc2ncc(Br)c(Nc3ccc4nccnc4c3NS(C)(=O)=O)n2)c(OC)cc1N1CCC(N2CCN(CCC3CCN(c4cc(F)c(C5CCC(=O)NC5=O)c(F)c4)CC3)CC2)CC1 (stereo not drawn) [Compound 90, N-(6-((5-bromo-2-((4-(4-(4-(2-(1-(4-(2,6-dioxopiperidin-3-yl)-3,5-difluorophenyl)piperidin-4-yl)ethyl)piperazin-1-yl)piperidin-1-yl)-5-ethyl-2-methoxyphenyl)amino)pyrimidin-4-yl)amino)quinoxalin-5-yl)methanesulfonamide] | 135 nM | 19.1 nM | – | – | 38.6 nM | > 1000 nM | 89.4 nM
CCc1cc(Nc2ncc(Br)c(Nc3ccc4nccnc4c3NS(C)(=O)=O)n2)c(OC)cc1N1CCC(N2CCN(CC3(CN4CCN(c5ccc6c(c5)CN([C@H]5CCC(=O)NC5=O)C6=O)CC4)CC3)CC2)CC1 [Compound 42, (S)-N-(6-((5-bromo-2-((4-(4-(4-((1-((4-(2-(2,6-dioxopiperidin-3-yl)-1-oxoisoindolin-5-yl)piperazin-1-yl)methyl)cyclopropyl)methyl)piperazin-1-yl)piperidin-1-yl)-5-ethyl-2-methoxyphenyl)amino)pyrimidin-4-yl)amino)quinoxalin-5-yl)methanesulfonamide] | > 1000 nM | 86 nM | – | – | > 100 nM | 606 nM | 105 nM
CCc1cc(Nc2ncc(Br)c(Nc3ccc4nccnc4c3NS(C)(=O)=O)n2)c(OC)cc1N1CCC(CN2CCC3(CC2)CN(c2ccc4c(c2)CN(C2CCC(=O)NC2=O)C4=O)C3)CC1 (stereo not drawn) [Compound 56, N-(6-((5-bromo-2-((4-(4-((2-(2-(2,6-dioxopiperidin-3-yl)-1~oxoisoindolin-5-yl)-2,7-diazaspiro[3.5]nonan-7-yl)methyl)piperidin-1-yl)-5-ethyl-2-methoxyphenyl)amino)pyrimidin-4-yl)amino)quinoxalin-5-yl)methanesulfonamide] | 18 nM | 6.08 nM | – | – | 9.32 nM | > 1000 nM | 37.2 nM
CCc1cc(Nc2ncc(Br)c(Nc3ccc4nccnc4c3NS(C)(=O)=O)n2)c(OC)cc1N1CCC(N2CCC(N3CCN(c4ccc5c(c4)CN([C@H]4CCC(=O)NC4=O)C5=O)CC3)CC2)CC1 [Compound 36, (S)-N-(6-((5-bromo-2-((4-(4-(4-(2-(2,6-dioxopiperidin-3-yl)-1-oxoisoindolin-5-yl)piperazin-1-yl)-[1,4′-bipiperidin]-1′-yl)-5-ethyl-2-methoxyphenyl)amino)pyrimidin-4-yl)amino)quinoxalin-5-yl)methanesulfonamide] | 102 nM | 9.12 nM | – | – | 1.27 nM | > 1000 nM | 77.6 nM
CCc1cc(Nc2ncc(Br)c(Nc3ccc4nccnc4c3NS(C)(=O)=O)n2)c(OC)cc1N1CCC(N2CC(N3CCN(c4ccc5c(c4)CN([C@H]4CCC(=O)NC4=O)C5=O)CC3)C2)CC1 [Compound 63, (S)-N-(6-((5-bromo-2-((4-(4-(3-(4-(2-(2,6-dioxopiperidin-3-yl)-1-oxoisoindolin-5-yl)piperazin-1-yl)azetidin-1-yl)piperidin-1-yl)-5-ethyl-2-methoxyphenyl)amino)pyrimidin-4-yl)amino)quinoxalin-5-yl)methanesulfonamide] | 18.2 nM | 6.23 nM | – | – | 12.9 nM | > 1000 nM | 40.8 nM
CCc1cc(Nc2ncc(Br)c(Nc3ccc4nccnc4c3NS(C)(=O)=O)n2)c(OC)cc1N1CCC(N2CCC(CN3CCN(c4ccc5c(c4)CN([C@H]4CCC(=O)NC4=O)C5=O)CC3)CC2)CC1 [Compound 35, (S)-N-(6-((5-bromo-2-((4-(4-((4-(2-(2,6-dioxopiperidin-3-yl)-1-oxoisoindolin-5-yl)piperazin-1-yl)methyl) [1,4′-bipiperidin]-1′-yl)-5-ethyl-2-methoxyphenyl)amino)pyrimidin-4-yl)amino)quinoxalin-5-yl)methanesulfonamide] | 86.5 nM | 13.7 nM | – | – | 66 nM | > 1000 nM | 126 nM
COc1cc(N2CCC(N3CCN(CC4CCN(c5ccc6c(c5)CN(C5CCC(=O)NC5=O)C6=O)CC4)CC3)CC2)c(-c2cnn(C)c2)cc1Nc1ncc(Br)c(Nc2ccc3nccnc3c2NS(C)(=O)=O)n1 (stereo not drawn) [Compound 32, N-(6-((5-bromo-2-((4-(4-(4-((1-(2-(2,6-dioxopiperidin-3-yl)-1-oxoisoindolin-5-yl)piperidin-4-yl)methyl)piperazin-1-yl)piperidin-1-yl)-2-methoxy-5-(1-methyl-1H-pyrazol-4-yl)phenyl)amino)pyrimidin-4-yl)amino)quinoxalin-5-yl)methanesulfonamide] | 26 nM | 10.9 nM | – | – | 3.1 nM | 214 nM | 35.6 nM
CCc1cc(Nc2ncc(Br)c(Nc3ccc4nccnc4c3NS(C)(=O)=O)n2)c(OC)cc1N1CCC(CN2CC3(CCN(c4ccc5c(c4)CN(C4CCC(=O)NC4=O)C5=O)CC3)C2)CC1 (stereo not drawn) [Compound 58, N-(6-((5-bromo-2-((4-(4-((7-(2-(2,6-dioxopiperidin-3-yl)-1-oxoisoindolin-5-yl)-2,7-diazaspiro[3.5]nonan-2-yl)methyl)piperidin-1-yl)-5-ethyl-2-methoxyphenyl)amino)pyrimidin-4-yl)amino)quinoxalin-5-yl)methanesulfonamide] | 23 nM | 11.2 nM | – | – | 10.4 nM | > 1000 nM | 49 nM
